In patent US5583147A, “Amides for the treatment of atherosclerosis” (The Dupont Merck Pharmaceutical Company, priority 1994, dated 1996):

molecular target: T1, Acyl-CoA: Cholesterol Acyltransferase (ACAT) (Rattus norvegicus, UniProt Q7TQM4); assay: Inhibition of Acyl-CoA: Cholesterol Acyltransferase (ACAT) in Hepatic Microsomes (In Vitro Assay); assay type: biochemical, rat (male Sprague Dawley); details: 75 μM 14C-oleoyl-CoA, pH 7.4, 37° C., 10 min, read-out: ACAT Inhibitory Activity (In Vitro) (IC50)
T1 construct: centrifuged at 105,000×g for 1 hour to pellet the microsomes; from tissue; host or cells: liver microsomes of male Sprague Dawley rats
T1 sequence (Q7TQM4 1-524): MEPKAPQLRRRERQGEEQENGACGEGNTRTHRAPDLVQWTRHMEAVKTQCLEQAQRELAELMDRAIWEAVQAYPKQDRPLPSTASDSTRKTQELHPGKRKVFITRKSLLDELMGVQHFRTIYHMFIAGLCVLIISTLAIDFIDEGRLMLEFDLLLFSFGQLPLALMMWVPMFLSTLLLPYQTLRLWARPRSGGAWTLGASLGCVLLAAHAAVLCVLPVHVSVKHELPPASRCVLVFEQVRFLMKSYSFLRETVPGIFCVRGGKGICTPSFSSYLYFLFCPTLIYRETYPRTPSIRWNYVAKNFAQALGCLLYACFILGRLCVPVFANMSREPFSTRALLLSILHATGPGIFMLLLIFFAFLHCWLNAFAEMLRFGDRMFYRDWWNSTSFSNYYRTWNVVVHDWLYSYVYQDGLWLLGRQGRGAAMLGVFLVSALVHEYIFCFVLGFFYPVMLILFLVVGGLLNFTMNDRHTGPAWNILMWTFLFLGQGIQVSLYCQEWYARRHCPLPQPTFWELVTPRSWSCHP
Experimental: A. Assay of the Inhibition of Acyl-CoA: Cholesterol Acyltransferase (ACAT) in Hepatic Microsomes (In Vitro Assay)
The ability of the compounds to inhibit ACAT, the enzyme responsible for the intracellular synthesis of cholesteryl esters, was tested as follows. Male Sprague Dawley rats weighing 150-300 g, were fed rat chow ad libitum. The animals were fasted for twenty-four hours prior to being euthanized by CO2. The livers were perfused in situ with 50 ml of cold 0.25 sucrose, excised, and homogenized in three volumes of 0.1M phosphate buffer, pH 7.4, that contained 0.5 mM EDTA (ethylenediamine-tetraacetic acid), 1.0 mM glutathione, 0.25M sucrose and […] leupeptin. Microsomes were obtained by differential centrifugation; the supernatant from an initial spin at 15,000×g for 15 minutes was centrifuged at 105,000×g for 1 hour to pellet the microsomes. The microsomes were suspended in homogenization buffer, reisolated by centrifugation, and stored at -70° C. Microsomes were used within one month of preparation.
The control assay in a final volume of 200 μl consisted of 200 μg of microsomal protein, 75 μM ^14 C-oleoyl-CoA (10,000 dpm/nmol) in 0.1M phosphate, pH 7.4, that contained 1 mM glutathione. Compounds were added in 5 μl of DMSO (dimethyl sulfoxide) and additional controls were run with DMSO only. All components, except the oleoyl-CoA, were preincubated for 15 min. at 37° C. prior to the initiation of the reaction by the addition of oleoyl-CoA. The assay was terminated after 10 min by the addition of 4 ml of chloroform:methanol (2:1, v/v). 20,000 dpm of ^3 H-cholesteryl oleate and 10 μg of unlabeled cholesteryl oleate and oleic acid were added as an internal standard and carriers, respectively. After allowing 10 min. for lipid extraction, the samples were centrifuged at 1,000×g for 10 min to separate the solvent layers. The chloroform layer containing the neutral lipids was spotted onto a Baker SI250-Pa silica gel TLC plate and the plate developed using a hexane:diethyl ether:acetic acid (170:30:1) v/v/v) mobile phase. The lipids were visualized by their interaction with iodine vapor and the cholesteryl ester spot was scraped into a scintillation vial and counted. The specific activity of ACAT in the control incubation averaged 260 pmol/min/mg microsomal protein. The data obtained are expressed as the concentration at which ACAT activity is inhibited by 50% (IC50).

SMILES	IC50 [nM]
CCCCCCSC(C(=O)Nc1c(SC)cc(C)nc1SC)c1ccccc1 (single isomer, unassigned) [Example 41, N-[2,4-bis(methylthio)-6-methyl-3-pyridyl]-L-(+)-α-hexylthio-phenylacetamide]	< 1000
CCCCCCSC(C(=O)Nc1c(C(C)C)cccc1C(C)C)c1ccccc1 (single isomer, unassigned) [Example 42, N-(2,6-diisopropyl-phenyl)-D-(-)-α-hexylthio-phenylacetamide]	< 1000
CSc1cc(C)nc(SC)c1NC(=O)C(SCc1ccccc1)c1ccccc1 (single isomer, unassigned) [Example 46, N-[2,4-bis(methylthio)-6-methyl-3-pyridyl]-D-(-)-α-benzylthio-phenylacetamide]	< 1000
CSc1cc(C)nc(SC)c1NC(=O)C(SCc1ccccc1)c1ccccc1 (single isomer, unassigned) [Example 47, N-[2,4-bis(methylthio)-6-methyl-3-pyridyl]-L-(+)-α-benzylthio-phenylacetamide]	< 1000
CC(C)c1cccc(C(C)C)c1NC(=O)C(SCc1ccccc1)c1ccccc1 (single isomer, unassigned) [Example 48, N-(2,6-diisopropyl-phenyl)-D-(-)-α-benzylthio-phenylacetamide]	< 1000
CCSC(C(=O)Nc1c(SC)cc(C)nc1SC)c1ccccc1 (single isomer, unassigned) [Example 49, N-[2,4-bis(methylthio)-6-methyl-3-pyridyl]-D-(-)-α-ethylthio-phenylacetamide]	< 1000
CCSC(C(=O)Nc1c(SC)cc(C)nc1SC)c1ccccc1 (single isomer, unassigned) [Example 50, N-[2,4-bis(methylthio)-6-methyl-3-pyridyl]-L-(+)-α-ethylthio-phenylacetamide]	< 1000
CSc1cc(C)nc(SC)c1NC(=O)C(Sc1ccccc1)c1ccccc1 (single isomer, unassigned) [Example 63, N-[2,4-his (methylthio)-6-methyl-3-pyridyl]-L-(+)-α-phenylthio-phenylacetamide]	< 1000
CC(C)c1cccc(C(C)C)c1NC(=O)C(Sc1ccccc1)c1ccccc1 (single isomer, unassigned) [Example 64]	1000 to 10000
CCCCCCSC(C(=O)Nc1c(SC)cc(C)nc1SC)c1ccc(Cl)cc1 (stereo not drawn) [Example 85, N-[2,4-bis(methylthio)-6-methyl-3-pyridyl]-α-hexylthio-4-chloro-phenylacetamide]	< 1000
CSc1cc(C)nc(SC)c1NC(=O)C(SCc1ccccc1)c1ccc(Cl)cc1 (stereo not drawn) [Example 89, N-[2,4-bis(methylthio)-6-methyl-3-pyridyl]-α-benzylthio-4-chloro-phenylacetamide]	< 1000
COc1ccc(CSC(C(=O)Nc2c(SC)cc(C)nc2SC)c2ccc(Cl)cc2)cc1 (stereo not drawn) [Example 90, N-[2,4-bis(methylthio)-6-methyl-3-pyridyl]-α-(4-methoxy-benzylthio)-4-chloro-phenylacetamide]	< 1000
CSc1cc(C)nc(SC)c1NC(=O)C(SCc1ccc(F)cc1)c1ccc(Cl)cc1 (stereo not drawn) [Example 91, N-[2,4-bis(methylthio)-6-methyl-3-pyridyl]-α-(4-fluoro-benzylthio)-4-chloro-phenylacetamide]	< 1000
CSc1cc(C)nc(SC)c1NC(=O)C(SCc1ccc(Cl)cc1)c1ccc(Cl)cc1 (stereo not drawn) [Example 92, N-[2,4-bis(methylthio)-6-methyl-3-pyridyl]-α-(4-chloro-benzylthio)-4-chloro-phenylacetamide]	< 1000
CSc1cc(C)nc(SC)c1NC(=O)C(Sc1ccccc1)c1ccc(Cl)cc1 (stereo not drawn) [Example 102, N-[2,4-bis(methylthio)-6-methyl-3-pyridyl]-α-phenylthio-4-chloro-phenylacetamide]	< 1000
COc1ccc(SC(C(=O)Nc2c(SC)cc(C)nc2SC)c2ccc(Cl)cc2)cc1 (stereo not drawn) [Example 103, N-[2,4-bis(methylthio)-6-methyl-3-pyridyl]-α-(4-methoxy-phenylthio)-4-chloro-phenylacetamide]	< 1000
CSc1cc(C)nc(SC)c1NC(=O)C(Sc1ccc(F)cc1)c1ccc(Cl)cc1 (stereo not drawn) [Example 104, N-[2,4-bis(methylthio)-6-methyl-3-pyridyl]-α-(4-fluoro-phenylthio)-4-chloro-phenylacetamide]	< 1000
CCCCCCSC(C(=O)Nc1c(SC)cc(C)nc1SC)c1ccc(OC)cc1 (stereo not drawn) [Example 118, N-[2,4-bis(methylthio)-6-methyl-3-pyridyl]-α-hexylthio-4-methoxy-phenylacetamide]	< 1000
COc1ccc(C(SCc2ccccc2)C(=O)Nc2c(SC)cc(C)nc2SC)cc1 (stereo not drawn) [Example 122, N-[2,4-bis(methylthio)-6-methyl-3-pyridyl]-α-benzylthio-4-methoxy-phenylacetamide]	< 1000
COc1ccc(C(SCc2ccc(Cl)cc2)C(=O)Nc2c(SC)cc(C)nc2SC)cc1 (stereo not drawn) [Example 123, N-[2,4-bis(methylthio)-6-methyl-3-pyridyl]-α-(4-chloro-benzylthio)-4-methoxy-phenylacetamide]	< 1000
COc1ccc(C(SCc2ccc(F)cc2)C(=O)Nc2c(SC)cc(C)nc2SC)cc1 (stereo not drawn) [Example 124, N-[2,4-bis(methylthio)-6-methyl-3-pyridyl]-α-(4-fluoro-benzylthio)-4-methoxy-phenylacetamide]	< 1000
COc1ccc(CSC(C(=O)Nc2c(SC)cc(C)nc2SC)c2ccc(OC)cc2)cc1 (stereo not drawn) [Example 125, N-[2,4-bis(methylthio)-6-methyl-3-pyridyl]-α-(4-methoxy-benzylthio)-4-methoxy-phenylacetamide]	< 1000
COc1ccc(C(Sc2ccccc2)C(=O)Nc2c(SC)cc(C)nc2SC)cc1 (stereo not drawn) [Example 135, N-[2,4-bis(methylthio)-6-methyl-3-pyridyl]-α-phenylthio-4-methoxy-phenylacetamide]	< 1000
COc1ccc(C(Sc2ccc(F)cc2)C(=O)Nc2c(SC)cc(C)nc2SC)cc1 (stereo not drawn) [Example 136, N-[2,4-bis(methylthio)-6-methyl-3-pyridyl]-α-(4-fluoro-phenylthio)-4-methoxy-phenylacetamide]	< 1000
COc1ccc(SC(C(=O)Nc2c(SC)cc(C)nc2SC)c2ccc(OC)cc2)cc1 (stereo not drawn) [Example 137, N-[2,4-bis(methylthio)-6-methyl-3-pyridyl]-α-(4-methoxy-phenylthio)-4-methoxy-phenylacetamide]	< 1000
COc1ccc(C(OC)C(=O)Nc2c(SC)cc(C)nc2SC)cc1 (stereo not drawn) [Example 146, N-[2,4-bis(methylthio)-6-methyl-3-pyridyl]-α-O-methyl-4-methoxymandeloamide]	1000 to 10000
COc1ccc(C(OC)C(=O)Nc2c(C(C)C)cccc2C(C)C)cc1 (stereo not drawn) [Example 147, N-(2,6-diisopropyl-phenyl)-α-O-methyl-4-methoxymandeloamide]	1000 to 10000
CCCCCCSC(C(=O)Nc1c(SC)cc(C)nc1SC)c1ccc(F)cc1 (stereo not drawn) [Example 148, N-[2,4-bis(methylthio)-6-methyl-3-pyridyl]-α-hexylthio-4-fluoro-phenylacetamide]	< 1000
CSc1cc(C)nc(SC)c1NC(=O)C(SCc1ccccc1)c1ccc(F)cc1 (stereo not drawn) [Example 152, N-[2,4-bis(methylthio)-6-methyl-3-pyridyl]-α-benzylthio-4-fluoro-phenylacetamide]	< 1000
CSc1cc(C)nc(SC)c1NC(=O)C(SCc1ccc(F)cc1)c1ccc(F)cc1 (stereo not drawn) [Example 153, N-[2,4-bis(methylthio)-6-methyl-3-pyridyl]-α-(4-fluoro-benzylthio)-4-fluoro-phenylacetamide]	< 1000
